Assay results reported in US6380181B1, “Synthetic catechol derivatives, method for production and use thereof” (priority 1996, dated 2002).
Converted amounts (≈) assume the structure as drawn. Where two headings read alike, the source gives them in different places.

Key:
Assay type in all cases: cell-based
[1] = system: E. coli DC2 (penetration mutant); conditions: concentration 100 μg/ml
[2] = system: Pseudomonas aeruginosa NCTC 10662; assay: Microdilution test (MIC); conditions: P. aeruginosa NCTC 10662
Method: (§1) The minimum inhibiting concentrations (MICs) were determined for the following bacterial strains: Pseudomonas aeruginosa NCTC 10701, NCTC 10662, SG 137, ATCC 27853, KW 799 WT and KW 799/61, E. coli DCO, DC2 and ATCC 25922, Serratia marcescens SG 621; Salmonella gallinarum ATCC 9184, Klebsiella pneumoniae ATCC 10031 and SG 117.

[3] = system: Serratia marcescens SG 621; assay: Microdilution test (MIC)
Method: as §1

[4] = system: Klebsiella pneumoniae ATCC 10031; assay: Microdilution test (MIC)
Method: as §1

E. coli ATCC 25922 = assay: Microdilution test (MIC)
Method: as §1

[5] = system: Pseudomonas aeruginosa SG 137; assay: Microdilution test (MIC); conditions: P. aeruginosa SG 137
Method: as §1

[6] = system: Pseudomonas aeruginosa SG 137 (carbenicillin-resistant); assay: Agar diffusion test; conditions: concentration 100 μg/ml, P. aeruginosa SG 137
[7] = system: Pseudomonas aeruginosa KW 799/61 (penetration mutant); conditions: P. aeruginosa KW799/61
[8] = system: Pseudomonas aeruginosa KW 799 WT (wild type); assay: Agar diffusion test; conditions: concentration 100 μg/ml, P. aeruginosa KW799/WT
[9] = system: Pseudomonas aeruginosa KW 799 WT; assay: Microdilution test (MIC); conditions: P. aeruginosa KW 799/WT
Method: as §1
(§2) With the test germs KW 799/WT and /61 of Pseudomonas and DCO and DC2 of E. coli, the effect of improved penetration capacity on the efficacy of the substances was investigated.

[10] = system: Pseudomonas aeruginosa KW 799/61; assay: Microdilution test (MIC)
Method: as §1, §2

E. coli DC2 = assay: microbe, parasite or virus in culture
Method: as §1, §2

E. coli DC0 (wild type) = assay: Agar diffusion test; conditions: concentration 100 μg/ml
[11] = system: Stenotrophomonas maltophilia GN 12873; assay: Microdilution test (MIC)
[12] = system: Stenotrophomonas maltophilia GN 12873; assay: Agar diffusion test; conditions: concentration 100 μg/ml
[13] = system: Salmonella gallinarum ATCC 9184; conditions: concentration 100 μg/ml, Salmonella galinarum ATCC 9184
[14] = system: Pseudomonas aeruginosa ATCC 27853; assay: Microdilution test (MIC); conditions: P. aeruginosa ATCC 27853
Method: as §1

[15] = system: Klebsiella pneumoniae SG 117; assay: Agar diffusion test; conditions: concentration 100 μg/ml
[16] = system: Klebsiella pneumoniae ATCC 10031; assay: Agar diffusion test; conditions: concentration 100 μg/ml
[17] = system: Pseudomonas aeruginosa ATCC 27853 (wild type); assay: Agar diffusion test; conditions: concentration 100 μg/ml; P. aeruginosa ATCC 27853
[18] = system: Pseudomonas aeruginosa PAO 6609
Description: (§3) In the indicator mutants, the synthesis of the respective siderophores, e.g. pyoverdin, pyochelin, enterobactin, aerobactin or yersiniabactin, or the biosynthesis of aromatic compounds, is blocked, or there is a lack of receptors for enterobactin, pyochelin or pyoverdin and for other important components for the bacterial transport of iron (e.g. the membrane proteins Cir, Fiu, FepA and TonB). Under conditions where there is a lack of iron, these mutants therefore cannot grow or can only grow to a very slight extent. In particular, the following indicator mutants were used: Pseudomonas aeruginosa PAO 6609, K 407, 690; E. coli AB 2847, Salmonella typhimurium enb-7, TA 270; Klebsiella pneumoniae KN 4401; Yersinia enterocolitica WAH; Proteus mirabilis 12 (wild); Proteus vulgaris 718 (wild) and Morganella morganii SBK3 (wild). […] The controls used were ferrioxamine E for the Pseudomonas strains, ferrioxamine G and enterobactin for the Salmonella strains, ferrichrome for the E. coli, Klebsiella and Y. enterocol. strains, and 3,4-dihydroxybenzylidene-2,4,6-trimethylaniline for Morganella morganii (see the above literature reference by R. Reissbrodt et al.).
(§4) The annotations + and (+) relate to non-specific promotion of growth.

[19] = system: Proteus mirabilis 12 (wild); conditions: Proteus mir. 12
Description: as §3, §4

[20] = system: Pseudomonas aeruginosa 690
Description: as §3, §4

E. coli AB 2847 = system: E. coli AB 2847
Description: as §3, §4

[21] = system: Klebsiella pneumoniae KN 4401; conditions: Klebsiella KN 4401
Description: as §3, §4

[22] = system: Salmonella typhimurium TA 2700
Description: as §3, §4

[23] = system: Salmonella typhimurium enb-7
Description: as §3, §4

[24] = system: Morganella morganii SBK3 (wild); conditions: M. morg. SBK 3
Description: as §3, §4

[25] = system: Pseudomonas aeruginosa K 407; conditions: Pseudomonas aeruginosa K407
Description: as §3, §4

[26] = system: Proteus vulgaris 718 (wild); conditions: Proteus vul. 718
Description: as §3, §4

COC(=O)Oc1cccc(C(=O)N2COC[C@H]2C(=O)N[C@@H](C(=O)N[C@@H]2C(=O)N3[C@@H]2SC(C)(C)[C@@H]3C(=O)O)c2ccccc2)c1OC(=O)OC [Substance 30, (S)-N-[3-(2,3-di-(Methoxycarbonyloxy)-benzoyl]-oxazolidin-4-oyl]-ampicillin]
inhibition spot diameter in the agar diffusion test [1]: 31 mm | MIC values, microdilution test [2]: 6.25 µg/mL (≈ 8.92 µM) | MIC values, microdilution test [3]: 50 µg/mL (≈ 71.4 µM) | MIC values, microdilution test [4]: 6.25 µg/mL (≈ 8.92 µM) | MIC values, microdilution test (E. coli ATCC 25922): 6.25 µg/mL (≈ 8.92 µM) | MIC values, microdilution test [5]: 0.4 µg/mL (≈ 0.571 µM) | inhibition spot diameter in the agar diffusion test [6]: 22 mm | inhibition spot diameter in the agar diffusion test ([7]; concentration 100 μg/ml): 33 mm | inhibition spot diameter in the agar diffusion test [8]: 27 mm | MIC values, microdilution test [9]: 0.78 µg/mL (≈ 1.11 µM) | MIC values, microdilution test [10]: 0.2 µg/mL (≈ 0.285 µM) | MIC values, microdilution test (E. coli DC2): 0.4 µg/mL (≈ 0.571 µM) | inhibition spot diameter in the agar diffusion test (E. coli DC0 (wild type)): 25 mm | MIC values, microdilution test [11]: 3.12 µg/mL (≈ 4.45 µM) | inhibition spot diameter in the agar diffusion test [12]: 19 mm | inhibition spot diameter in the agar diffusion test [13]: 29 mm

CC(=O)Oc1cccc(C(=O)Nc2cc(NC(=O)c3cccc(OC(C)=O)c3OC(C)=O)cc(C(=O)N[C@@H](C(=O)N[C@@H]3C(=O)N4[C@@H]3SC(C)(C)[C@@H]4C(=O)O)c3ccccc3)c2)c1OC(C)=O [Substance 36, N-[3,5-bis-(2,3-diacetoxy-benzoylamino)-benzoyl]-ampicillin]
inhibition spot diameter in the agar diffusion test [1]: 19 mm | MIC values, microdilution test [2]: 6.25 µg/mL (≈ 6.76 µM) | MIC values, microdilution test [14]: 3.12 µg/mL (≈ 3.38 µM) | MIC values, microdilution test (E. coli ATCC 25922): 25 µg/mL (≈ 27.1 µM) | MIC values, microdilution test [5]: 0.4 µg/mL (≈ 0.433 µM) | inhibition spot diameter in the agar diffusion test [6]: 25 mm | inhibition spot diameter in the agar diffusion test [15]: 16 mm | inhibition spot diameter in the agar diffusion test ([7]; concentration 100 μg/ml): 29 mm | inhibition spot diameter in the agar diffusion test [16]: 17 mm | inhibition spot diameter in the agar diffusion test [8]: 25 mm | inhibition spot diameter in the agar diffusion test (E. coli DC0 (wild type)): 13 mm | MIC values, microdilution test [11]: 1.56 µg/mL (≈ 1.69 µM) | inhibition spot diameter in the agar diffusion test [17]: 19 mm | inhibition spot diameter in the agar diffusion test [12]: 24 mm | inhibition spot diameter in the agar diffusion test [13]: 23 mm

CC(=O)Oc1cccc(C(=O)NCCCC[C@H](NC(=O)c2cccc(OC(C)=O)c2OC(C)=O)C(=O)N[C@@H](C(=O)N[C@@H]2C(=O)N3[C@@H]2SC(C)(C)[C@@H]3C(=O)O)c2ccc(O)cc2)c1OC(C)=O [Substance Na-35, N-[L-2,6-bis-(2,3-diacetoxy-benzoylamino)-hexanoyl)-amoxicillin]
inhibition spot diameter in the agar diffusion test [1]: 38 mm | MIC values, microdilution test [2]: 1.58 µg/mL (≈ 1.69 µM) | MIC values, microdilution test [14]: 1.56 µg/mL (≈ 1.67 µM) | MIC values, microdilution test (E. coli ATCC 25922): 0.2 µg/mL (≈ 0.214 µM) | MIC values, microdilution test [5]: 0.1 µg/mL (≈ 0.107 µM) | inhibition spot diameter in the agar diffusion test [6]: 31 mm | inhibition spot diameter in the agar diffusion test [15]: 23 mm | inhibition spot diameter in the agar diffusion test ([7]; [ ] at 50 μg/ml): [38] mm | inhibition spot diameter in the agar diffusion test [16]: 20 mm | inhibition spot diameter in the agar diffusion test [8]: 30 mm | inhibition spot diameter in the agar diffusion test (E. coli DC0 (wild type)): 24 mm | MIC values, microdilution test [11]: 6.25 µg/mL (≈ 6.69 µM) | inhibition spot diameter in the agar diffusion test [17]: 22 mm | inhibition spot diameter in the agar diffusion test [12]: 28 mm | inhibition spot diameter in the agar diffusion test [13]: 33 mm

C[C@@H](O)[C@H]1C(=O)N2C(C(=O)O)=C(S[C@@H]3CN[C@H](C(=O)N(C)C)C3)[C@H](C)[C@H]12 [Meropenem, reference compound]
MIC ([14]; Pseudomonas aeruginosa, ATCC27853): 0.2 µg/mL (≈ 0.522 µM) | MIC ([4]; ATCC10031): < 0.05 µg/mL | MIC (E. coli ATCC 25922; Escherichia coli, ATCC25922): < 0.05 µg/mL | MIC ([5]; Pseudomonas aeruginosa, SG137): 0.1 µg/mL (≈ 0.261 µM) | MIC ([11]; GN12873): > 100 µg/mL

CC(=O)Oc1cccc(C(=O)NCCCC[C@H](NC(=O)c2cccc(OC(C)=O)c2OC(C)=O)C(=O)N[C@@H](C(=O)N[C@@H]2C(=O)N3[C@@H]2SC(C)(C)[C@@H]3C(=O)O)c2ccccc2)c1OC(C)=O [Substance Na-31, N-[L-2,6-bis-(2,3-diacetoxybenzoylamino)-hexanoyl]-ampicillin]
inhibition spot diameter in the agar diffusion test ([1]; listed as Na-31): 38 mm | MIC values, microdilution test ([2]; listed as Na-31): 0.78 µg/mL (≈ 0.85 µM) | MIC values, microdilution test [14]: 0.78 µg/mL (≈ 0.85 µM) | MIC values, microdilution test (E. coli ATCC 25922; listed as Na-31): 0.2 µg/mL (≈ 0.218 µM) | inhibition spot diameter in the agar diffusion test ([6]; listed as Na-31): 31 mm | inhibition spot diameter in the agar diffusion test [15]: 26 mm | inhibition spot diameter in the agar diffusion test ([7]; [ ] at 50 μg/ml): [38] mm | inhibition spot diameter in the agar diffusion test [16]: 21 mm | inhibition spot diameter in the agar diffusion test ([8]; listed as Na-31): 31 mm | inhibition spot diameter in the agar diffusion test (E. coli DC0 (wild type); listed as Na-31): 28 mm | MIC values, microdilution test ([11]; listed as Na-31): 6.25 µg/mL (≈ 6.81 µM) | inhibition spot diameter in the agar diffusion test [17]: 24 mm | inhibition spot diameter in the agar diffusion test ([12]; listed as Na-31): 29 mm | inhibition spot diameter in the agar diffusion test ([13]; listed as Na-31): 34 mm

COC(=O)Oc1ccc(C=Nc2cc(N=Cc3ccc(OC(=O)OC)c(OC(=O)OC)c3)cc(C(=O)O)c2)cc1OC(=O)OC [Substance 4, 3,5-Bis-[3,4-di(methoxycarbonyloxy)-benzylideneamino]-benzoic Acid]
Growth areas of siderophore indicator strains (diameter) [18]: 17 mm | Growth areas of siderophore indicator strains (diameter) [19]: 23 mm | Growth areas of siderophore indicator strains (diameter) [20]: 18 mm | Growth areas of siderophore indicator strains (diameter) (E. coli AB 2847): 18 mm | Growth areas of siderophore indicator strains (diameter) [21]: 33 mm | Growth areas of siderophore indicator strains (diameter) [22]: 0 mm | Growth areas of siderophore indicator strains (diameter) [23]: 34 mm | Growth areas of siderophore indicator strains (diameter) [24]: 27 mm | Growth areas of siderophore indicator strains (diameter) [25]: 18 mm | Growth areas of siderophore indicator strains (diameter) [26]: 24 mm

COC(=O)Oc1ccc(C=Nc2cc(C(=O)O)ccc2O)cc1OC(=O)OC [Substance 2, 3-[3 ,4-di(Methoxycarbonyloxy)-benzylideneamino]4-hydroxybenzoic Acid]
Growth areas of siderophore indicator strains (diameter) [18]: 17 mm | Growth areas of siderophore indicator strains (diameter) [19]: 16 mm | Growth areas of siderophore indicator strains (diameter) [20]: 17 mm | Growth areas of siderophore indicator strains (diameter) (E. coli AB 2847): 0 mm | Growth areas of siderophore indicator strains (diameter) [21]: 35 mm | Growth areas of siderophore indicator strains (diameter) [22]: 0 mm | Growth areas of siderophore indicator strains (diameter) [23]: 30 mm | Growth areas of siderophore indicator strains (diameter) [24]: 20 mm | Growth areas of siderophore indicator strains (diameter) [25]: 18 mm | Growth areas of siderophore indicator strains (diameter) [26]: 25 mm
